Laboratory results published in patent US8604217B2, “Compound, a process for its preparation, a pharmaceutical composition, use of a compound, a method for modulating or regulating serine/threonine kinases and a serine/threonine kinases modulating agent” (Selvita S.A., priority 2009, dated 2013).
Values belong to the molecule of their own block, whether it stands above or below them.

Key:
JNK3(h) = JNK3(h) (Homo sapiens (Human), UniProt P53779); assay: KinaseProfiler kinase panel; format: biochemical
Yes(h) = Yes(h) (Homo sapiens (Human), UniProt P07947); assay: KinaseProfiler kinase panel; format: biochemical
Rsk1(r) = Rsk1(r) (Rattus norvegicus (Rat), UniProt Q63531); assay: KinaseProfiler kinase panel; format: biochemical
Rsk1(r), sequence (Q63531 whole entry): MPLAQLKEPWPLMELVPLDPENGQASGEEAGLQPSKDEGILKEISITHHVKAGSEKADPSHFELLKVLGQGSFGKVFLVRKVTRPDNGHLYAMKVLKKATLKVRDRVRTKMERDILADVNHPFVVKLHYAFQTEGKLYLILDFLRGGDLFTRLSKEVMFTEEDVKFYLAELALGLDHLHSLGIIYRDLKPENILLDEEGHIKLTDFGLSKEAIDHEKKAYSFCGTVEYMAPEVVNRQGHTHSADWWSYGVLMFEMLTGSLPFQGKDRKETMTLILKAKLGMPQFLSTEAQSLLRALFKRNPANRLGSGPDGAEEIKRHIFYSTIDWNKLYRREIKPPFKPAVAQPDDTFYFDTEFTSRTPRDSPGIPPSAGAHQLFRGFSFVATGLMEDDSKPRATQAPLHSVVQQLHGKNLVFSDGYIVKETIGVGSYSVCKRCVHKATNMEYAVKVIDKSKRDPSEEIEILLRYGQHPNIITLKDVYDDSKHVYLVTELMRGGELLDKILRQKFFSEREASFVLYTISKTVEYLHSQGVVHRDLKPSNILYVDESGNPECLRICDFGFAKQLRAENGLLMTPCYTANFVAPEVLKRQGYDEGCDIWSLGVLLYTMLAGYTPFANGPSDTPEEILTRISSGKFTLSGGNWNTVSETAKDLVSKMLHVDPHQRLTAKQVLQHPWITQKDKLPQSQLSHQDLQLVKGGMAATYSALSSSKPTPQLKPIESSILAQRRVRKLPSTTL

SAPK2a(T106M)(h) = SAPK2a(T106M)(h) (Homo sapiens (Human), UniProt Q16539, T106M); assay: KinaseProfiler kinase panel; format: biochemical
SAPK2a(T106M)(h), sequence (Q16539 whole entry T106M): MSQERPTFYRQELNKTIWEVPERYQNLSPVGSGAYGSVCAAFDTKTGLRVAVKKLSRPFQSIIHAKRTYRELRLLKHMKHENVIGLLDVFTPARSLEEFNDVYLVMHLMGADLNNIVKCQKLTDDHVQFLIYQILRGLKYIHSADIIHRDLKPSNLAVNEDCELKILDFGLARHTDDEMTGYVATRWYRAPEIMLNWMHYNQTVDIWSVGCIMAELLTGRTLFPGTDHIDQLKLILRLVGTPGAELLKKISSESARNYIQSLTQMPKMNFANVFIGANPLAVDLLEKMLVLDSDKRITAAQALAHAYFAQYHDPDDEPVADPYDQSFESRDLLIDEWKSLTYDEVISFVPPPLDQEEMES

Abl (Q252H) (h) = Abl (Q252H) (h) (Homo sapiens (Human), UniProt P00519, Q252H); assay: KinaseProfiler kinase panel; format: biochemical
Ron(h) = Ron(h) (Homo sapiens (Human), UniProt Q04912); assay: KinaseProfiler kinase panel; format: biochemical
ULK2(h) = ULK2(h) (Homo sapiens (Human), UniProt Q8IYT8); assay: KinaseProfiler kinase panel; format: biochemical
TAO1(h) = TAO1(h) (Homo sapiens (Human), UniProt Q7L7X3); assay: KinaseProfiler kinase panel; format: biochemical
mTOR/FKBP12(h) = mTOR/FKBP12(h) (Homo sapiens (Human), UniProt P42345); assay: KinaseProfiler kinase panel; format: biochemical
FGFR1(V561M)(h) = FGFR1(V561M)(h) (Homo sapiens (Human), UniProt P11362, V561M); assay: KinaseProfiler kinase panel; format: biochemical
FGFR1(V561M)(h), sequence (P11362 22-822 V561M): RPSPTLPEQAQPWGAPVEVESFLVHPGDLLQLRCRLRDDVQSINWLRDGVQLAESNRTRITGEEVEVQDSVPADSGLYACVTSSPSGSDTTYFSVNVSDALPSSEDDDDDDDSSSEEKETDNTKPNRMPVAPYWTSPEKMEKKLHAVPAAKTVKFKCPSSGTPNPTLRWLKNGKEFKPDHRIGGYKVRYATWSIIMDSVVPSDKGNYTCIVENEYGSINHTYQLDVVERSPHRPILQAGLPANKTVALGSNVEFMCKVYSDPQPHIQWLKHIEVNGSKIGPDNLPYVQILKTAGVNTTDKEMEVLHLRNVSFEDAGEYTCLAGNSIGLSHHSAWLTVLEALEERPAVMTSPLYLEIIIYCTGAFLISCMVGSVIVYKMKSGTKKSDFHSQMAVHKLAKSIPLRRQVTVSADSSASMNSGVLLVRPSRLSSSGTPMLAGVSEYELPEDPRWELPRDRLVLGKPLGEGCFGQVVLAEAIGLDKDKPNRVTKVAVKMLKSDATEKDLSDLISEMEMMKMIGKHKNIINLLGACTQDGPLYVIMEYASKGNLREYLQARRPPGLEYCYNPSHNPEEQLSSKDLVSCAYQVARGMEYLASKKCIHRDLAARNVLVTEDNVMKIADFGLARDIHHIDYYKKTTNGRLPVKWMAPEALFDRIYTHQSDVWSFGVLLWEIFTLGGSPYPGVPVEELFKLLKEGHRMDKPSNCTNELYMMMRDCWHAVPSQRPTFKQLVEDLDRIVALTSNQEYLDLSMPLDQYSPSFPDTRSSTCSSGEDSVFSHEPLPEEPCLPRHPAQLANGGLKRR

PKCε(h) = PKCε(h) (Homo sapiens (Human), UniProt Q02156); assay: KinaseProfiler kinase panel; format: biochemical
Lck(h) activated = Lck(h) activated (Homo sapiens (Human), UniProt P06239); assay: KinaseProfiler kinase panel; format: biochemical
Lck(h) activated, sequence (P06239 whole entry): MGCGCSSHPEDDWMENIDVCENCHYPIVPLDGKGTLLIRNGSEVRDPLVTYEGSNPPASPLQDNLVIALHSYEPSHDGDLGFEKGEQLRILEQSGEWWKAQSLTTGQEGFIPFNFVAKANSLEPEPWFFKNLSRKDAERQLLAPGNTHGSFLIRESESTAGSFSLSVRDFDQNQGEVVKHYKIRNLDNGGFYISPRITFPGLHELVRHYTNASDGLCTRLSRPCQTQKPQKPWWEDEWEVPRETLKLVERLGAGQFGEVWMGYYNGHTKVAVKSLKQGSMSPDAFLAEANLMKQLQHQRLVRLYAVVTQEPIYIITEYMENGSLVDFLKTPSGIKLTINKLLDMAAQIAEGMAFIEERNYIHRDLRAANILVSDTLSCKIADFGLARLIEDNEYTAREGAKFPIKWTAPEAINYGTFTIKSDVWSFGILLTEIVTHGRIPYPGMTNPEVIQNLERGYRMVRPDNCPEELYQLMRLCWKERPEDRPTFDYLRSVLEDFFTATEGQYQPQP

PKCι(h) = PKCι(h) (Homo sapiens (Human), UniProt P41743); assay: KinaseProfiler kinase panel; format: biochemical
ROCK-II(h) = ROCK-II(h) (Homo sapiens (Human), UniProt O75116); assay: KinaseProfiler kinase panel; format: biochemical
ROCK-II(h), sequence (O75116 whole entry): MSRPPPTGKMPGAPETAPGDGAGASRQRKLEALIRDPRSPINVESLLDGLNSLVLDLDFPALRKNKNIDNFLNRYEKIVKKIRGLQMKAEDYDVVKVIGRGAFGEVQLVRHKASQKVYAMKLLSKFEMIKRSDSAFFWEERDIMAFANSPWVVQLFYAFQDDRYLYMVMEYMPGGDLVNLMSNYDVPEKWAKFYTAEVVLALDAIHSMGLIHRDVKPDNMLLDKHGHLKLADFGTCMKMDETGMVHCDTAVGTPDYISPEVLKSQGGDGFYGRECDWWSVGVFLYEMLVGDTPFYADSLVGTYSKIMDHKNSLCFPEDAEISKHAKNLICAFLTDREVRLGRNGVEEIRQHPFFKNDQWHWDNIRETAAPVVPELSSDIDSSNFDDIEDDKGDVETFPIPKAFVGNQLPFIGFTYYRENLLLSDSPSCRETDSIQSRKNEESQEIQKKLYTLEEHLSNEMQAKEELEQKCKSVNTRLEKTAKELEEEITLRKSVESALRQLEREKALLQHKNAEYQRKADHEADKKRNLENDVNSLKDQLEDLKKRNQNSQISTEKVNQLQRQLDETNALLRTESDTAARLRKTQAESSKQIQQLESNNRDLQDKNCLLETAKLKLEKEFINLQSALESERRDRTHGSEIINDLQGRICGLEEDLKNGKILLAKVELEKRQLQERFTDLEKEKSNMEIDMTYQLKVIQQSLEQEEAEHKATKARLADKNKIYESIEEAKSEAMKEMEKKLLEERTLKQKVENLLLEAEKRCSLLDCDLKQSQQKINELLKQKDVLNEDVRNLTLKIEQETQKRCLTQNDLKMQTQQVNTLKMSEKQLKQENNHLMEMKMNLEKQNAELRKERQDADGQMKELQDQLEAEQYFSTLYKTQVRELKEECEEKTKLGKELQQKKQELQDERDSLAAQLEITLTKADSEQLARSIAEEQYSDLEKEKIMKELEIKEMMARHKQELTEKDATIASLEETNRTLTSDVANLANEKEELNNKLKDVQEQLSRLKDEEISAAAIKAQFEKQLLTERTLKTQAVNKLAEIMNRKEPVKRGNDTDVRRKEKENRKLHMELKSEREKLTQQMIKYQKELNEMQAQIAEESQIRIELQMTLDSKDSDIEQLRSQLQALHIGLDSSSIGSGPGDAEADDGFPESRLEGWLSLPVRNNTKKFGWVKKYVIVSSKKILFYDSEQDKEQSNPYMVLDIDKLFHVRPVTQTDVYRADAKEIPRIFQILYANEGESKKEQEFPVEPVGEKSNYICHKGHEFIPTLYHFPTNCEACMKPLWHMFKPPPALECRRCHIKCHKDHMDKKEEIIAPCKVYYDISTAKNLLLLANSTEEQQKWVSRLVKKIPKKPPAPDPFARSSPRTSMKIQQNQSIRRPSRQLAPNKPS

Mer(h) = Mer(h) (Homo sapiens (Human), UniProt Q12866); assay: KinaseProfiler kinase panel; format: biochemical
CLK2(h) = CLK2(h) (Homo sapiens (Human), UniProt P49760); assay: KinaseProfiler kinase panel; format: biochemical
IRAK1(h) = IRAK1(h) (Homo sapiens (Human), UniProt P51617); assay: KinaseProfiler kinase panel; format: biochemical
EphA4(h) = EphA4(h) (Homo sapiens (Human), UniProt P54764); assay: KinaseProfiler kinase panel; format: biochemical
ROCK-II(r) = ROCK-II(r) (Rattus norvegicus (Rat), UniProt Q62868); assay: KinaseProfiler kinase panel; format: biochemical
EGFR(L861Q)(h) = EGFR(L861Q)(h) (Homo sapiens (Human), UniProt P00533, L861Q); assay: KinaseProfiler kinase panel; format: biochemical
CaMKIδ(h) = CaMKIδ(h) (Homo sapiens (Human), UniProt Q8IU85); assay: KinaseProfiler kinase panel; format: biochemical
CK1(y) = assay: KinaseProfiler kinase panel; format: biochemical, yeast; conditions: 1 μM
CDK7/cyclinH/MAT1(h) = CDK7/cyclinH/MAT1(h) (Homo sapiens (Human), UniProt P50613); assay: KinaseProfiler kinase panel; format: biochemical
MELK(h) = MELK(h) (Homo sapiens (Human), UniProt Q14680); assay: KinaseProfiler kinase panel; format: biochemical
SGK(h) = SGK(h) (Homo sapiens (Human), UniProt O00141); assay: KinaseProfiler kinase panel; format: biochemical
DDR2(h) = DDR2(h) (Homo sapiens (Human), UniProt Q16832); assay: KinaseProfiler kinase panel; format: biochemical
CDK6/cyclinD3(h) = CDK6/cyclinD3(h) (Homo sapiens (Human), UniProt Q00534); assay: KinaseProfiler kinase panel; format: biochemical
CDK6/cyclinD3(h), sequence (Q00534 whole entry): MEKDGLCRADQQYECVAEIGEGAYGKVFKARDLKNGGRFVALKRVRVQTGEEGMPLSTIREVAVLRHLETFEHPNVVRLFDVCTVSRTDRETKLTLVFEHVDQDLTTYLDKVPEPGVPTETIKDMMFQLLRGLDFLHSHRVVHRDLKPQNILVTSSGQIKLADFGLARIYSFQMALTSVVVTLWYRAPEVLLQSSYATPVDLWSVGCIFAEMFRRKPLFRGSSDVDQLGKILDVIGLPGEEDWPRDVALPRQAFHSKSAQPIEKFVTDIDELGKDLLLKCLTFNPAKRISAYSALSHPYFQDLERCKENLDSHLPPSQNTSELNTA
CDK6/cyclinD3(h), sequence (P30281 whole entry partner): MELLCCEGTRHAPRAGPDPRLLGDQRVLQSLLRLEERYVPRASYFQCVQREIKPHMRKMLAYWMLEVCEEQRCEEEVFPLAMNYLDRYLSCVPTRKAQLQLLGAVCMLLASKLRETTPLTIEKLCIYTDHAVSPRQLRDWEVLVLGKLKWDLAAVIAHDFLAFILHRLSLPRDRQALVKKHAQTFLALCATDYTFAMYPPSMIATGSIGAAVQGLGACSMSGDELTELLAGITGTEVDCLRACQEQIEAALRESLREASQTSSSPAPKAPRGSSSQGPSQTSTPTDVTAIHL

Abl(Y253F)(h) = Abl(Y253F)(h) (Homo sapiens (Human), UniProt P00519, Y253F); assay: KinaseProfiler kinase panel; format: biochemical
Txk(h) = Txk(h) (Homo sapiens (Human), UniProt P42681); assay: KinaseProfiler kinase panel; format: biochemical
CaMKIIγ(h) = CaMKIIγ(h) (Homo sapiens (Human), UniProt Q13555); assay: KinaseProfiler kinase panel; format: biochemical
NEK3(h) = NEK3(h) (Homo sapiens (Human), UniProt P51956); assay: KinaseProfiler kinase panel; format: biochemical
NEK11(h) = NEK11(h) (Homo sapiens (Human), UniProt Q8NG66); assay: KinaseProfiler kinase panel; format: biochemical
SRPK1(h) = SRPK1(h) (Homo sapiens (Human), UniProt Q96SB4); assay: KinaseProfiler kinase panel; format: biochemical
MuSK(h) = MuSK(h) (Homo sapiens (Human), UniProt O15146); assay: KinaseProfiler kinase panel; format: biochemical
MKK4(m) = MKK4(m) (Mus musculus (Mouse), UniProt P47809); assay: KinaseProfiler kinase panel; format: biochemical
Aurora-A(h) = Aurora-A(h) (Homo sapiens (Human), UniProt O14965); assay: KinaseProfiler kinase panel; format: biochemical
Aurora-A(h), sequence (O14965 whole entry): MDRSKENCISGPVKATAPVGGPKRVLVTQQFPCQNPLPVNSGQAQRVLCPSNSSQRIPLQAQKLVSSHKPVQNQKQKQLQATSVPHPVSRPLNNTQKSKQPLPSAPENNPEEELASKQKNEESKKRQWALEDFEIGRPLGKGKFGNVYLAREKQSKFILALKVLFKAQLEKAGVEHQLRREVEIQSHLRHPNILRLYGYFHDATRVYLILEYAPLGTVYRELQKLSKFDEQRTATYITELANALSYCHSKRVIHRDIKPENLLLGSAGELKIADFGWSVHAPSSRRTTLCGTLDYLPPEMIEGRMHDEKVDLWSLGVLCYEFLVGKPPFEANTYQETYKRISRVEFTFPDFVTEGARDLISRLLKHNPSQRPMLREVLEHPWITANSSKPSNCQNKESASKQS

Met(h) = Met(h) (Homo sapiens (Human), UniProt P08581); assay: KinaseProfiler kinase panel; format: biochemical
Tie2(Y897S)(h) = Tie2(Y897S)(h) (Homo sapiens (Human), UniProt Q02763, Y897S); assay: KinaseProfiler kinase panel; format: biochemical
CDK2/cyclin A = CDK2/cyclin A (Homo sapiens (Human), UniProt P24941); conditions: tested at 1 μM; cited from earlier work

remaining activity at 1 µM (JNK3(h)): 87%
remaining activity at 1 µM (Yes(h)): 48%
remaining activity at 1 µM (Rsk1(r)): 79%
remaining activity at 1 µM (SAPK2a(T106M)(h)): 86%
remaining activity at 1 µM (Abl (Q252H) (h)): 98%
remaining activity at 1 µM (Ron(h)): 108%
remaining activity at 1 µM (ULK2(h)): 88%
remaining activity at 1 µM (TAO1(h)): 6%
remaining activity at 1 µM (mTOR/FKBP12(h)): 103%
remaining activity at 1 µM (FGFR1(V561M)(h)): 69%
remaining activity at 1 µM (PKCε(h)): 104%
remaining activity at 1 µM (Lck(h) activated): 69%
remaining activity at 1 µM (PKCι(h)): 104%
remaining activity at 1 µM (ROCK-II(h)): 81%
remaining activity at 1 µM (Mer(h)): 14%
remaining activity at 1 µM (CLK2(h)): 2%
remaining activity at 1 µM (IRAK1(h)): 33%
remaining activity at 1 µM (EphA4(h)): 99%
remaining activity at 1 µM (ROCK-II(r)): 71%
remaining activity at 1 µM (EGFR(L861Q)(h)): 27%
remaining activity at 1 µM (CaMKIδ(h)): 94%
% remaining activity (CK1(y)): 6%
remaining activity at 1 µM (CDK7/cyclinH/MAT1(h)): 25%
remaining activity at 1 µM (MELK(h)): 86%
remaining activity at 1 µM (SGK(h)): 90%
remaining activity at 1 µM (DDR2(h)): 105%
remaining activity at 1 µM (CDK6/cyclinD3(h)): 91%
remaining activity at 1 µM (Abl(Y253F)(h)): 92%
remaining activity at 1 µM (Txk(h)): 99%
remaining activity at 1 µM (CaMKIIγ(h)): 41%
remaining activity at 1 µM (NEK3(h)): 85%
remaining activity at 1 µM (NEK11(h)): 73%
remaining activity at 1 µM (SRPK1(h)): 106%
remaining activity at 1 µM (MuSK(h)): 103%
remaining activity at 1 µM (MKK4(m)): 100%
remaining activity at 1 µM (Aurora-A(h)): 125%
remaining activity at 1 µM (Met(h)): 81%
remaining activity at 1 µM (Tie2(Y897S)(h)): 91%
Structure (SMILES): CCn1c(N2CCNCC2)nc2c(Br)c(Br)c(Br)c(Br)c21 [Compound 416, 4,5,6,7-tetrabromo-1-ethyl-2-(piperazin-1-yl)-1H-benzo[d]imidazole]

Structure (SMILES): CN(C)c1nc2c(Br)c(Br)c(Br)c(Br)c2[nH]1 [DMAT, 2-dimethylamino-4,5,6,7-tetrabromo-1H-benzimidazole, reference compound]
inhibition of CDK2/cyclin A activity (CDK2/cyclin A): do not inhibit
